For experiment [1], the target named is T1, HRas^G12V (Homo sapiens (Human), UniProt P01112, G12V). The experiment is described as follows: Overall binding/activity in the various assays (NMR consensus binding). The gist of the method: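 Fragments (240 µM each, pooled) screened against 50 µM HRas^G12V in 25 mM sodium phosphate pH 7.4, 150 mM NaCl, 5 mM MgCl2, 1 mM TCEP-d16 by 1H-decoupled 1D 19F NMR. Hits confirmed by ligand- and protein-observed 1D 1H, STD and T2-CPMG (aggregation check); consensus binding ranked, with 15N HSQC for sites and Kd.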

The target of experiment [2] is T2, KRAS^G12D-GDP (Homo sapiens (Human), UniProt P01116, G12D). The experiment is described as follows: NMR Kd, KRAS^G12D-GDP. The experiment is classed as binding. The following applies: 1H 1D protein-observed NMR, read-out: 1H 1D PO NMR Kd. The method, then:
^1H/^15N Fast-HSQC experiments (Mori et al., Journal of Magnetic Resonance, Series B, Volume 108, Issue 1, July 1995, Pages 94-98) were recorded at a protein concentration of 50-100 μM.
Dissociation constants were obtained by monitoring changes in chemical shifts as a function of ligand concentration. The changes in chemical shifts (d) were calculated according to the following equation (Williamson, Progress in Nuclear Magnetic Resonance Spectroscopy, Volume 73, August 2013, Pages 1-16): d=√(1/2[δ_H^2+[…]]), Where δ are the changes in chemical shift in ppm for ^1H and ^15N and the correction factor (α) was set at 0.15.
^1H 1D protein-observed experiments were recorded with 15-50 μM protein. The standard Bruker 1D ^1H sequence with excitation sculpting (zgesgp) was employed. A relaxation delay of 1 s was employed in order to use 256 scans while still keeping experimental time fairly short. Changes in protein chemical shift or peak intensity in the methyl region were monitored against compound concentration.
(§1) The activity of compounds of the invention regarding KRAS^G12D-GDP was measured in the same as in Example 80. The results obtained with the compounds in the various assays described above are depicted in Table 23.

Experiment [3] addresses T2, KRAS^G12D-GDP. The experiment is described as follows: Overall activity in the various assays, KRAS^G12D-GDP. The experiment is classed as binding. As for the experimental part: as §1
Experiment [4] concerns the target T3, wild type HRAS (Homo sapiens (Human), UniProt P01112). Description: 19F DLB score, wild type HRAS. Type of experiment: binding. As for the experimental part:
(§2) Since the fragment library was curated using phosphate buffer, 25 mM sodium phosphate pH 7.4, 150 mM NaCl, 5 mM MgCl2, 1 mM TCEP-d16, 10% D2O Fresh TCEP was used for experiments. Screening was performed using ^1H-decoupled 1D ^19F experiment Bruker experiment (zgfhigqn.2) with 64 scans and a relaxation delay of 5 seconds. 50 μM HRas^G12V and 240 μM of each fragment in pools (mixtures) were used.
(§3) Hit confirmation was performed using the same ^19F experiment as the screen. Ligand-observed 1D ^1H, protein-observed 1D ^1H, ^1H T2-CPMG as well as Saturation Transfer Difference (STD) experiments were also run on the same samples. Ligand-observed 1D ^1H was run using the standard Bruker sequence with excitation sculpting (zgesgp) with a relaxation delay of 10 seconds and 16 scans per spectrum. Protein-observed 1D ^1H was performed using the same sequence with a relaxation delay of 1 second and 256 scans in order to increase the signal-to-noise of the protein resonances, while keeping the experimental time relatively short. The ^1H T2-CPMG experiment employed a modified version of the Bruker 1D ^1H zgesgp experiment with the addition of a CPMG pulse train after the first 90° excitation pulse. Total duration for each spin echo was fixed at 1 ms (τ=500 μs), while the number of echoes in the pulse train was varied according to the total time (T). The number of scans for each spectrum was 4 and eight delay times were run on each sample, ranging from 1 ms to 800 ms.
(§4) The activity of compounds of the invention regarding wild type HRAS was measured in the same as in Example 80. The results obtained with the compounds in the various assays described above are depicted in Table 2.

Experiment [5] has as its target T3, wild type HRAS. Description: 19F T2-CPMG score, wild type HRAS. Type of experiment: binding. The method, then:
as §2, §3, §4

For experiment [6], the target named is T1, HRas^G12V. The experiment is described as follows: Dissociation constant by SPR. The experiment is classed as binding. The method, then:
SPR experiments were performed using the P4SPR from Affinité Instruments using Ni-NTA immobilization chips and his-tagged protein. Ni-NTA coated surfaces allow the immobilization of his-tagged proteins by chelation of histidine residues to the nickel ion. The sensor chip was inserted into a quad inlet model P4SPR (with 4 independent channels). Once the instrument was turned on, the baseline was stabilized by deionized (DI) water, followed by signal stabilization by the running buffer. His-tagged protein at 10 μg/mL was injected into all 4 channels of the P4SPR and was left to react for 20 min. The sensor chip was then washed with DI water. The lowest concentration of the ligand was injected into the channels of the P4SPR and was left to react for 10 min. The SPR shift was saved. Then, a higher concentration of the ligand was injected, and the sample injection steps were repeated until all 5 concentrations have been added. The KD of the binding interaction between the ligand and protein was determined by using the affinity curve fitting function in the P4SPR Control software.
(In general: SPR reads the build-up and loss of mass on a sensor chip optically.)

Entries after “also recorded” stand apart in the source; their conditions may differ.

As to `CC(C)N1CCC(NC(=O)Cc2c[nH]c3cc(F)ccc23)CC1` [Compound 10018], on HRas^G12V [1], the “Activity ranking on HRas^G12V (in words)” value is “More active”. In addition, the Kd – broadly, the constant that tells how readily two partners part at equilibrium – on KRAS^G12D-GDP [2] lay in the range of 5020 to 6250 µM. Further, the “Activity ranking on KRAS^G12D-GDP (in words)” value on KRAS^G12D-GDP [3] is “most active”.

On to `O=C(Cc1c[nH]c2cc(F)ccc12)N1CCC(O)CC1` [Compound 10086], for which the “Activity ranking on HRas^G12V (in words)” value on HRas^G12V [1] is “More active”. At KRAS^G12D-GDP [2], the Kd was 1900 to 4030 µM. In addition, the “Activity ranking on KRAS^G12D-GDP (in words)” value at KRAS^G12D-GDP [3] was “most active”.

Consider `CN(C)CCOc1cccc(NC(=O)Cc2c[nH]c3cc(F)ccc23)c1` [Compound 10095, N-(3-(2-(dimethylamino)ethoxy)phenyl)-2-(6-fluoro-1H-indol-3-yl)acetamide], for which, at HRas^G12V [1], the “Activity ranking on HRas^G12V (in words)” value was “More active; also recorded: Most active”. Besides, the “19F DLB Score” value on wild type HRAS [4] was 4.57. Besides, the “19F T2-CPMG Score” value at wild type HRAS [5] is “<LLOQ”.

On HRas^G12V [6], `CN(C)CC(=O)Nc1cccc(NC(=O)Cc2c[nH]c3cc(F)ccc23)c1` [compound 10097] registered a Kd of 31 µM. On HRas^G12V [1], the “Activity ranking on HRas^G12V (in words)” value is given as “More active; also recorded: Most active”. Moreover, the “19F DLB Score” value on wild type HRAS [4] came to 7.61. Moreover, the “19F T2-CPMG Score” value on wild type HRAS [5] is “<LLOQ”.

The values are drawn from patent US20240408064A1, “RAS INHIBITORS, COMPOSITIONS AND METHODS OF USE THEREOF” (GENETOLEAD INC., priority 2021, published 2024).
